Reference: the supplement of paper PMC10307832

Experiments:
Test in all cases: relative viability (nuclei count vs DMSO), 5 days (fraction); higher = more cells survive
[1] = compound: CCC1=CN=CN=C1N2CCN(CC2)CC3=NC4=C(N3)C=C(C=C4)C(F)(F)F + O=C(CCCCCCC(=O)Nc1ccccc1)NO [Vorinostat] (partner 1 µM)
Summary of the method: (§1)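 Nuclei were stained with Hoechst during a one-step fixation (final 0.05% Triton X-100, 1% formaldehyde, 1 ug/ml Hoechst) carried out 5 days after dosing, then counted on 4× images. The cells, lung cancer lines in 1536-well plates, had been dosed by pin tool the day after seeding with one drug alone or a fixed anchor-drug dose plus five library-drug doses (not always all listed) in √10 steps. Relative viability is the nuclei count in treated wells divided by that in vehicle wells, and each value is the median of duplicate plates.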

Mirin + OSI-027 = compound: N=C1NC(=O)/C(=C/c2ccc(O)cc2)S1 [Mirin] + COc1cccc2cc(-c3nc([C@H]4CC[C@H](C(=O)O)CC4)n4ncnc(N)c34)[nH]c12 [OSI-027] (partner 0.5 µM)
Summary of the method: as §1

Mirin + Crizotinib = compound: N=C1NC(=O)/C(=C/c2ccc(O)cc2)S1 [Mirin] + C[C@@H](Oc1cc(-c2cnn(C3CCNCC3)c2)cnc1N)c1c(Cl)ccc(F)c1Cl [Crizotinib] (partner 1 µM)
Summary of the method: as §1

Cell Line | relative viability ([1]; first compound 0.04 µM) | relative viability ([1]; first compound 0.1265 µM) | relative viability ([1]; first compound 0.4 µM) | relative viability ([1]; first compound 1.265 µM) | relative viability ([1]; first compound 4 µM) | relative viability (Mirin + OSI-027; first compound 0.25 µM) | relative viability (Mirin + OSI-027; first compound 0.7906 µM) | relative viability (Mirin + OSI-027; first compound 2.5 µM) | relative viability (Mirin + OSI-027; first compound 7.906 µM) | relative viability (Mirin + OSI-027; first compound 25 µM) | relative viability (Mirin + Crizotinib; first compound 0.25 µM) | relative viability (Mirin + Crizotinib; first compound 0.7906 µM) | relative viability (Mirin + Crizotinib; first compound 2.5 µM) | relative viability (Mirin + Crizotinib; first compound 7.906 µM) | relative viability (Mirin + Crizotinib; first compound 25 µM)
NCI-H1651 | 0.615 | 0.56 | 0.542 | 0.506 | 0.584 | 0.782 | 0.701 | 0.877 | 0.549 | 0.662 | 0.827 | 0.875 | 0.849 | 0.877 | 0.821
HARA | 0.542 | 0.492 | 0.57 | 0.556 | 0.466 | 0.491 | – | 0.56 | 0.356 | 0.437 | 1.06 | 1.15 | 1.05 | 0.995 | 1.14
NCI-H1944 | 0.664 | 0.441 | 0.663 | 0.384 | 0.524 | 0.445 | 0.344 | 0.391 | 0.375 | 0.314 | 0.971 | – | 1.04 | 1.1 | 0.957
NCI-H2405 | 1.03 | 0.961 | 0.925 | – | 1.12 | 0.625 | 0.612 | 0.585 | 0.627 | 0.508 | 0.835 | 0.584 | 0.878 | 0.816 | 0.793
201T | 0.923 | 0.889 | 0.819 | 0.817 | 1.06 | 0.75 | 0.832 | – | 0.629 | 0.64 | 0.936 | 1.09 | 0.995 | 1.16 | 1.22
PC-3 [JPC-3] | – | 0.737 | 0.738 | 0.701 | 0.885 | 0.797 | 0.739 | 0.774 | 0.669 | 0.753 | 1 | 1.1 | 1.02 | 1.03 | 1.11
Calu-6 | – | – | – | – | – | – | – | – | – | – | 0.745 | 0.833 | 0.767 | 0.781 | 0.781
NCI-H1703 | – | – | – | – | – | – | – | – | – | – | 0.603 | 0.519 | 0.757 | 0.523 | 0.493
NCI-H1650 | 0.635 | 0.73 | 0.503 | 0.359 | 0.636 | 0.577 | 0.601 | 0.729 | 0.643 | 0.403 | 0.928 | 0.959 | 0.952 | 1.11 | 1.16
NCI-H838 | 0.785 | 0.695 | 0.821 | 0.66 | 0.662 | 0.394 | 0.394 | 0.414 | 0.374 | 0.406 | 0.895 | 0.918 | 0.834 | 0.906 | 0.681
NCI-H2342 | 0.629 | 0.736 | 0.744 | 0.531 | 0.565 | 0.618 | 0.634 | 0.579 | 0.489 | 0.558 | – | – | – | – | –
NCI-H1792 | – | – | – | – | – | 0.724 | 0.746 | 0.745 | – | 0.634 | 1.02 | 1.01 | 1.05 | 0.864 | 0.963
COR-L23 | 0.464 | 0.523 | 0.404 | 0.44 | 0.462 | 0.803 | 0.816 | 0.761 | 0.69 | 0.728 | 0.69 | 0.828 | 0.75 | 0.556 | 0.617
ChaGo-K-1 | 0.792 | 0.75 | 0.712 | 0.648 | 0.824 | 0.582 | 0.396 | 0.55 | 0.492 | 0.432 | 0.984 | – | 1.12 | 1.04 | 0.866
HOP-62 | 0.604 | 0.56 | 0.462 | 0.429 | 0.606 | 0.836 | 0.787 | 0.846 | 0.663 | 0.688 | 1.05 | 0.815 | 0.828 | – | 0.937
NCI-H1915 | 0.591 | 0.51 | 0.496 | 0.492 | 0.559 | 0.586 | – | 0.625 | 0.579 | 0.6 | 0.863 | – | 0.87 | 0.809 | 1.03
BEN | 0.556 | 0.566 | 0.565 | 0.457 | 0.464 | 0.288 | 0.306 | 0.273 | 0.286 | 0.192 | 0.855 | 0.753 | 1.01 | 0.82 | 0.43
NCI-H1437 | 0.915 | 0.748 | 0.745 | 0.64 | 0.5 | 0.853 | 0.895 | 0.948 | 0.832 | 0.643 | 0.9 | 0.936 | 0.744 | 0.898 | 0.774
EMC-BAC-2 | – | 0.415 | 0.422 | 0.386 | 0.484 | 0.389 | 0.378 | 0.337 | 0.307 | 0.312 | 0.727 | 0.818 | 0.774 | 0.697 | 0.616
NCI-H2087 | 0.929 | 0.881 | 0.707 | 0.659 | 0.638 | 0.633 | 0.436 | 0.374 | 0.253 | 0.358 | 0.898 | 1.08 | 0.849 | 0.771 | 1.16
NCI-H650 | 0.414 | 0.455 | 0.448 | 0.363 | 0.477 | 0.478 | 0.628 | 0.523 | – | 0.58 | 0.726 | – | 0.656 | – | 0.673
LXF-289 | 0.933 | 0.735 | 0.718 | 0.742 | 0.789 | 0.79 | 0.701 | 0.764 | 0.715 | 0.763 | 0.808 | 0.87 | 0.787 | 0.899 | 0.945
NCI-H1623 | – | – | – | – | – | 0.444 | 0.442 | 0.421 | 0.336 | 0.376 | – | – | – | – | –
SW 900 | 0.454 | 0.45 | 0.403 | – | 0.422 | 0.487 | 0.597 | 0.701 | 0.434 | 0.75 | – | – | – | – | –
NCI-H1648 | 0.684 | – | – | 0.362 | 0.403 | 0.279 | 0.276 | 0.232 | 0.261 | 0.26 | – | – | – | – | –
NCI-H1793 | 0.568 | 0.668 | 0.531 | 0.536 | 0.647 | 0.289 | – | 0.335 | 0.286 | 0.259 | – | – | – | – | –
IA-LM | – | 0.979 | 0.937 | 0.932 | 0.962 | – | – | – | – | – | 0.813 | 0.916 | 0.744 | 0.849 | 0.981
A549 | – | – | – | – | – | – | – | – | – | – | 0.799 | 0.9 | 0.739 | 0.675 | 0.68
